Experiments:
[1] = target: Insulin receptor tyrosine kinase (Homo sapiens, UniProt P06213); assay: Protein kinase/phosphatase panel: insulin receptor tyrosine kinase; format: biochemical; settings: inhibitor 10 μM; 100 μM ATP
[2] = target: Lck (Homo sapiens, UniProt P06239); assay: Protein kinase/phosphatase panel: Lck; format: biochemical; settings: inhibitor 10 μM; 100 μM ATP
[3] = system: neutrophils on TNFα-inflamed venular endothelium of the cremaster muscle; assay: Intravital microscopy of TNFα-inflamed cremaster muscle venules, GFP+/− mice; format: in vivo
Description: To determine if PI3Kδ contributes to leukocyte accumulation in inflamed tissues, the ability of leukocytes to interact with cytokine-stimulated endothelial cells in microvessels in the cremaster muscle of mice and to transmigrate was examined. Animals heterozygous for GFP expression under the murine lysozyme M locus control, which rendered neutrophils and other granulocytes visible by epifluorescence intravital microscopy, were used to quantitate leukocyte interactions with the vessel wall.
Mice in which green fluorescent protein (GFP) was knocked into the lysozyme M locus or the PI3Kδ catalytic subunit was deleted were generated as previously described [Faust et al., Blood, 96:719-726 (2000); and, Clayton et al., J. Exp. Med., 196:753-763 (2002)]. Subsequent matings were performed to yield mice that were heterozygous for GFP expression but deficient in PI3Kδ expression (mixed 129/Sv-C57BL/6 background) (GFP^+/−/PI3Kδ^−/− animals). All animals were handled in accordance with policies administered by institutional Animal Care and Use Committees.
The surgical preparation of animals for all in vivo studies was performed using standard techniques [see, e.g., Coxon, Immunity, 5:653-666 (1996)]. The cremaster muscle (CM) in GFP^+/− or GFP^+/−/PI3Kδ^−/− animals was inflamed with an intrascrotal injection of murine recombinant TNFα (20 ng/mouse). 2.5 hours after TNFα injection, the tissue was surgically exposed and positioned over a circular glass coverslip (25 mm) on a custom-built plexiglass stage for viewing. The stage was then placed on an intravital microscope (IV-500; Mikron instruments, San Diego, Calif.) equipped with a silicon-intensified camera (VE1000SIT; Dage mti, Michigan City, Ind.) and the tissue kept moist by superfusion with thermo-controled (37° C.) bicarbonate-buffered saline. GFP-expressing cells (predominantly neutrophils, also including fewer monocytes) were visualized through X20 or X40 water immersion objectives (Acroplan, Carl Zeiss Inc.) by epifluorescence from a Xenon arc stroboscope (Chadwick Helmuth, El Monte, Calif.) as they passed through the venous microcirculation of the cremaster muscle. Rolling fraction was defined as the percentage of cells that interact with a given venule in the total number of cells that enter that venule during the same time period. The sticking fraction was defined as the number of rolling cells that became stationary for >30 s post-superfusion of the CM with LTB4 (0.1 μM). Venular shear rates were determined from optical Doppler velocimeter measurements of centerline erythrocyte velocity. The extent of leukocyte transmigration was evaluated at 30 and 60 min after application of LTB4. Video images were recorded using a Hi8 VCR (Sony, Boston, Mass.), and analysis of performed using a PC-based image analysis system [Doggett et al., Biophys. J., 83:194-205 (2002)].
In order for leukocyte transmigration to occur, engagement of the leukocyte integrins with ICAMs expressed on venular endothelium (“firm adhesion”) is necessary for leukocytes to stably adhere to the vessel wall (in addition to the requirement for selectin-mediated tethering and rolling) [Dunne et al., Blood, 99:336-341 (2002)]. To determine the role of PI3Kδ in firm adhesion, the ability of leukocytes rolling on inflamed venular endothelium to undergo integrin-mediated firm adhesion in response to an activating stimulus was investigated in vivo.
These experiments were performed in accordance with the procedures described in Example 2.

[4] = target: PDK1; assay: Activity of PDK1 immunoprecipitated from TNFα-stimulated HUVECs; format: cell-based, human; settings: incubation of intact HUVECs with compound
Description: Thus, PI3Kδ activity is required for PDK1 and Akt function in endothelium as previously described for neutrophils.

[5] = system: ICAM-1; assay: LTB4-triggered firm adhesion of neutrophils to CHO cells transfected with human ICAM-1; format: cell-based; settings: 2 μM; LTB4 0.1 μM; wall shear stresses 2 and 4 dyn/cm^2
Protocol: Purified neutrophils (2×10^6/ml in HBSS buffer containing 2 mM MgCl2) were incubated with 2 μM of a compound in accordance with the invention prior to conducting the adhesion assays. […] Treated neutrophils were then stimulated with LTB4 (0.1 μM) and allowed to bind in stasis to CHO cells transfected with human ICAM-1 before subjecting them to physiological wall shear stresses of 2 and 4 dyn/cm^2. ICAM-1 expression on these cells was confirmed by flow cytometry using mAb R 1/1 (fluorescence intensity>103, data not shown). […] For example, more than 80% of LTB4-stimulated neutrophils remained bound to the ICAM-1 substrate in the presence or absence of an inhibitor in accordance with the invention. The percentage of cells that remained adherent after 20 seconds (s) at each wall shear stress was determined by off-line video analysis.

[6] = system: neutrophil accumulation in BAL fluid; assay: LPS-induced acute lung injury model, BAL fluid; format: in vivo; settings: for reduction in the accumulation of neutrophils in BAL fluid: one hour prior to LPS challenge
Protocol: Lewis rats to be treated with an inhibitor in accordance with the invention or vehicle control (PEG400) were first challenged with LPS [Asti et al., Pulm. Pharmacol Ther., 13:61-69 (2000)]. Briefly, the trachea was exposed by standard surgical procedures and 100 μl saline solution or saline containing LPS (Escherichia Coli Serotype 0111:B4, Sigma) was instilled. Six hours following the challenge, rats were euthanized and the bronchoalveolar lavage (BAL) fluid was collected for cell differentials. Total white blood cell (WBC) and neutrophil counts were determined (Hemavet™ 850 FS cell counter). Cell populations were identified by morphological examination of smears prepared by cytocentrifugation.
Animals received a single oral dose of either a compound in accordance with the invention (25 mg/kg for mice and 20 or 40 mg/kg for rats) or vehicle (PEG-400). Blood samples were subsequently drawn at indicated time points and plasma concentration of the compound determined after liquid-liquid extraction by LC/MS. The lower quantification limit was 50 ng/ml. Plasma samples from control animals (vehicle alone) were used as the blank control.

[7] = target: p38 MAPK (Homo sapiens, UniProt Q16539); settings: inhibitor 10 μM; reported by Sadhu et al.; cited from earlier work
[8] = target: PKBα (Akt 1) (Homo sapiens, UniProt P31749); settings: inhibitor 10 μM; reported by Sadhu et al.; cited from earlier work
PKBα (Akt 1), sequence (P31749 whole entry, species assumed): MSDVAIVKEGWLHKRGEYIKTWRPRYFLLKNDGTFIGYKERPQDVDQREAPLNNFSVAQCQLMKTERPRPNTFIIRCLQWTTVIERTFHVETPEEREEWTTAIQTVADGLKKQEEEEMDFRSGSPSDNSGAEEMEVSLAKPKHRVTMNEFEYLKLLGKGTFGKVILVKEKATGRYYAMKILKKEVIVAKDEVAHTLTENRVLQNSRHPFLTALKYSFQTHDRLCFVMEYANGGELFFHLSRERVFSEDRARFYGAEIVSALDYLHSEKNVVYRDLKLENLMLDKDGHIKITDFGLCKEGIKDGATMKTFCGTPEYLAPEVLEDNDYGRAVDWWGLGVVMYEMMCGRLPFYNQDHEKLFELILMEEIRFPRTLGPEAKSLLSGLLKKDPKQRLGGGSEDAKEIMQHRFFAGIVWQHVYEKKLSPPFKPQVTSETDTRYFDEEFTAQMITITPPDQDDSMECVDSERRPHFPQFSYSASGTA

Insulin receptor tyrosine kinase, sequence (P06213 28-1382): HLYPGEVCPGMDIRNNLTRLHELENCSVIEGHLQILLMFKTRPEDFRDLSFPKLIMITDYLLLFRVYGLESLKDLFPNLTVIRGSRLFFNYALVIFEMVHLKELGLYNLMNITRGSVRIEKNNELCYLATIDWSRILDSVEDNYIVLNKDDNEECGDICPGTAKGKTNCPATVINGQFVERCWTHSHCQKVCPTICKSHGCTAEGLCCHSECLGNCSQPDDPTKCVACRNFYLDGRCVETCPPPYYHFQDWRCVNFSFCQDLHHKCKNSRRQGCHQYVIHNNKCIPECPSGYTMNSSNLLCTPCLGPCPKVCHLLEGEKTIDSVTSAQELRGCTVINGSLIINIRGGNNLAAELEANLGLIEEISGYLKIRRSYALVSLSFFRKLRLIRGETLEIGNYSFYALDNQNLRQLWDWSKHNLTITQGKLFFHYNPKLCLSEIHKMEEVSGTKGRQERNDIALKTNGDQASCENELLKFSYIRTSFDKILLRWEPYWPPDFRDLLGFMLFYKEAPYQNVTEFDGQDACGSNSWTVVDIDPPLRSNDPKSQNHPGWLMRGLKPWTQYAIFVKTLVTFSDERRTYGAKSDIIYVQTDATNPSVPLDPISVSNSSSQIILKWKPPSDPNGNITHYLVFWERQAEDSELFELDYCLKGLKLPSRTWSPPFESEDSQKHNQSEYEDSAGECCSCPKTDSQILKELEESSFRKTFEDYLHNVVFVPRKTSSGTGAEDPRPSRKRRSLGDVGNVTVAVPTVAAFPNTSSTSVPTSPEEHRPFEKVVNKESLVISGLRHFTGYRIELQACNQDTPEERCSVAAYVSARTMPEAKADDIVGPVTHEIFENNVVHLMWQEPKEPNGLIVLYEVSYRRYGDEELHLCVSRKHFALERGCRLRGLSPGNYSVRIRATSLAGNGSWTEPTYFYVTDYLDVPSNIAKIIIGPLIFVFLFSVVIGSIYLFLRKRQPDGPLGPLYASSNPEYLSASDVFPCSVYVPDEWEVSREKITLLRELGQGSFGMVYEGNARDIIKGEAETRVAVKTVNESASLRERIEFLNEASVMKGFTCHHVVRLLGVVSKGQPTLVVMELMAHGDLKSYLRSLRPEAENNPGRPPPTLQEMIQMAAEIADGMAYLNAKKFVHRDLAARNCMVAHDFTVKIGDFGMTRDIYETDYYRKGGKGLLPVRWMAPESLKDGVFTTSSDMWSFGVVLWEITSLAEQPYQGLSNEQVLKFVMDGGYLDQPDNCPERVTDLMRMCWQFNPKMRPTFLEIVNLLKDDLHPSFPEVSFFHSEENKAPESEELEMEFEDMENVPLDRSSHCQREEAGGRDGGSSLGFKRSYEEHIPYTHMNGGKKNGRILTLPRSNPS
Lck, sequence (P06239 whole entry, species assumed): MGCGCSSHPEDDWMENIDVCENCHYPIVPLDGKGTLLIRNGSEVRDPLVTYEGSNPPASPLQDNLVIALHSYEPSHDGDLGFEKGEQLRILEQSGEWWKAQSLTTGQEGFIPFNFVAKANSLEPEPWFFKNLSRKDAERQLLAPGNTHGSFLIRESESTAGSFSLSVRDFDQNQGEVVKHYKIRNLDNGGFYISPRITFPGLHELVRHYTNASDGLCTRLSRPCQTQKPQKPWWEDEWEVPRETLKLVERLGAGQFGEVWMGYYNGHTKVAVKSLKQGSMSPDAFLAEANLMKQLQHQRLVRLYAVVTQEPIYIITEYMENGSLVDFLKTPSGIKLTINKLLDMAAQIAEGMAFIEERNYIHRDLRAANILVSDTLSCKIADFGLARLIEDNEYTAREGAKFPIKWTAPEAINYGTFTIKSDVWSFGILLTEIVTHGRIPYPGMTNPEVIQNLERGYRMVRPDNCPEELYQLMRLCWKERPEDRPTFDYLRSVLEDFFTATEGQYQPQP
p38 MAPK, sequence (Q16539 whole entry): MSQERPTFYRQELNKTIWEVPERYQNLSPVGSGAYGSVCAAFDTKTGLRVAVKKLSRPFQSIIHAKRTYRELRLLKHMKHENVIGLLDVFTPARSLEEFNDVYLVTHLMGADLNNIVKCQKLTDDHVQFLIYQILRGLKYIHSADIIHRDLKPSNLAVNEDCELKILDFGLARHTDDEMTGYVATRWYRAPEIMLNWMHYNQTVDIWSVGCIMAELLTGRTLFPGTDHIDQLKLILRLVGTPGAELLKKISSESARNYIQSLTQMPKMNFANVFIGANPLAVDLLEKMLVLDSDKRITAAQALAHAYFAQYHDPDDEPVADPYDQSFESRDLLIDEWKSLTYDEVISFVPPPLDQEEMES

## Cc1ccccc1-n1c(Cn2cnc3c(N)ncnc32)nc2cccc(C)c2c1=O
[1]
  Activity (% of control) ± SD: 98 ± 6.2 % of control
[2]
  Activity (% of control) ± SD: 116.5 ± 9.2 % of control
[3]; GFP+/− animals
  mean rolling velocities of neutrophils on TNFα-inflamed venules: 40.5±12.5 μm/s
[3]; LTB4 superfusion of cremaster muscle
  LTB4-induced migration of neutrophils across inflamed microvessels: diminished
[3]; inflamed cremaster muscle superfused with LTB4
  integrin-mediated firm adhesion of rolling leukocytes in vivo: rapidly transitioned from rolling to firm adhesion
[3]; inhibitor-treated GFP+/− animals
  time the majority of neutrophils rolled before releasing from the vessel wall: < 2 s
[3]; oral, one hour prior to intrascrotal TNFα, GFP+/− animals, vs vehicle
  interactions between circulating granulocytes and venular endothelium: significantly impaired
[3]; vs vehicle treated mice
  decrease in the number of fluorescent cells that attach and roll: > 50%
[4]
  kinase activity of PDK1 in response to TNFα: reduced the kinase activity
[5]
  LTB4-stimulated neutrophils remaining bound to the ICAM-1 substrate: more than 80%
[6]; 20 mg per kg oral
  reduction in the accumulation of neutrophils in BAL fluid: approximately 60%
[6]; 40 mg per kg oral
  reduction in the accumulation of neutrophils in BAL fluid: ~80%
[6]; LPS-treated mice that received inhibitor
  TNFα in BAL fluid: still detectable
[7]
  Activity (% of control) ± SD: No inhibition*
[8]
  Activity (% of control) ± SD: No inhibition*

Reference: patent publication US20080287469A1, “Phosphoinositide 3-Kinase Inhibitors for Inhibiting Leukocyte Accumulation” (priority 2005, published 2008)
